Test results reported in the NIST ThermoML archive (doi:10.1016/j.jct.2013.07.003).

Assays:
[1] = refractive index (Na D-line) (dimensionless); xn = mol fraction of the nth substance listed; details: 101 kPa, Liquid, Standard Abbe refractometry
[2] = relative permittivity at various frequencies (dimensionless); xn = mol fraction of the nth substance listed; details: 101 kPa, Liquid, Frequency=0.1 MHz, Coaxial cylinder capacitor

CC(O)CCO (stereo not given) [1,3-butanediol] + C1COCCO1
Details | refractive index, 298.2 K | refractive index, 303.2 K | refractive index, 308.2 K | refractive index, 313.2 K | refractive index, 318.2 K | relative permittivity, 298.2 K | relative permittivity, 303.2 K | relative permittivity, 308.2 K | relative permittivity, 313.2 K | relative permittivity, 318.2 K
[1], x1 = 0.103 | 1.4217 | 1.4195 | 1.4165 | 1.414 | 1.4112 | – | – | – | – | –
[1], x1 = 0.204 | 1.4235 | 1.4213 | 1.4183 | 1.4161 | 1.4136 | – | – | – | – | –
[1], x1 = 0.301 | 1.425 | 1.423 | 1.4202 | 1.418 | 1.4155 | – | – | – | – | –
[1], x1 = 0.401 | 1.4268 | 1.425 | 1.4222 | 1.4202 | 1.4177 | – | – | – | – | –
[1], x1 = 0.451 | 1.4279 | 1.4258 | 1.4233 | 1.4213 | 1.419 | – | – | – | – | –
[1], x1 = 0.5 | 1.4287 | 1.4267 | 1.4243 | 1.4222 | 1.42 | – | – | – | – | –
[1], x1 = 0.548 | 1.4296 | 1.4275 | 1.4255 | 1.423 | 1.4209 | – | – | – | – | –
[1], x1 = 0.61 | 1.431 | 1.4285 | 1.4262 | 1.4242 | 1.4221 | – | – | – | – | –
[1], x1 = 0.699 | 1.4325 | 1.4308 | 1.4285 | 1.4267 | 1.4247 | – | – | – | – | –
[1], x1 = 0.788 | 1.4342 | 1.4326 | 1.4303 | 1.4287 | 1.4269 | – | – | – | – | –
[1], x1 = 0.897 | 1.4363 | 1.4348 | 1.4333 | 1.4314 | 1.4297 | – | – | – | – | –
[1], x1 = 0.951 | 1.4374 | 1.4361 | 1.4347 | 1.4329 | 1.4313 | – | – | – | – | –
[1], x1 = 1 | 1.4384 | 1.4371 | 1.4356 | 1.4341 | 1.4328 | – | – | – | – | –
[2], x1 = 0.103 | – | – | – | – | – | 3.36 | 3.34 | 3.32 | 3.3 | 3.28
[2], x1 = 0.204 | – | – | – | – | – | 4.91 | 4.85 | 4.79 | 4.72 | 4.67
[2], x1 = 0.301 | – | – | – | – | – | 6.73 | 6.64 | 6.54 | 6.45 | 6.38
[2], x1 = 0.401 | – | – | – | – | – | 8.96 | 8.82 | 8.66 | 8.52 | 8.38
[2], x1 = 0.451 | – | – | – | – | – | 10.17 | 10 | 9.83 | 9.67 | 9.5
[2], x1 = 0.5 | – | – | – | – | – | 11.44 | 11.23 | 11.02 | 10.85 | 10.61
[2], x1 = 0.548 | – | – | – | – | – | 12.76 | 12.5 | 12.25 | 12.03 | 11.77
[2], x1 = 0.61 | – | – | – | – | – | 14.6 | 14.3 | 13.94 | 13.63 | 13.3
[2], x1 = 0.699 | – | – | – | – | – | 17.46 | 17.03 | 16.58 | 16.15 | 15.73
[2], x1 = 0.788 | – | – | – | – | – | 20.41 | 19.88 | 19.36 | 18.88 | 18.38
[2], x1 = 0.897 | – | – | – | – | – | 24.35 | 23.72 | 23.02 | 22.41 | 21.79
[2], x1 = 0.951 | – | – | – | – | – | 26.42 | 25.72 | 24.98 | 24.29 | 23.61
[2], x1 = 1 | – | – | – | – | – | 28.52 | 27.66 | 26.77 | 25.98 | 25.22

CC(O)CCO (stereo not given) [1,3-butanediol] + CCCCCCCCO
Details | refractive index, 298.2 K | refractive index, 303.2 K | refractive index, 308.2 K | refractive index, 313.2 K | refractive index, 318.2 K | relative permittivity, 298.2 K | relative permittivity, 303.2 K | relative permittivity, 308.2 K | relative permittivity, 313.2 K | relative permittivity, 318.2 K
[1], x1 = 0.105 | 1.4279 | 1.4257 | 1.4233 | 1.4209 | 1.4189 | – | – | – | – | –
[1], x1 = 0.2 | 1.4283 | 1.4261 | 1.4238 | 1.4215 | 1.4195 | – | – | – | – | –
[1], x1 = 0.301 | 1.4288 | 1.4268 | 1.4245 | 1.4223 | 1.4204 | – | – | – | – | –
[1], x1 = 0.401 | 1.4295 | 1.4275 | 1.4253 | 1.4232 | 1.4213 | – | – | – | – | –
[1], x1 = 0.45 | 1.43 | 1.4281 | 1.4259 | 1.4239 | 1.4221 | – | – | – | – | –
[1], x1 = 0.501 | 1.4305 | 1.4286 | 1.4265 | 1.4245 | 1.4227 | – | – | – | – | –
[1], x1 = 0.55 | 1.4311 | 1.4292 | 1.4272 | 1.4253 | 1.4236 | – | – | – | – | –
[1], x1 = 0.6 | 1.4316 | 1.4298 | 1.4278 | 1.426 | 1.4245 | – | – | – | – | –
[1], x1 = 0.66 | 1.4325 | 1.4307 | 1.4288 | 1.427 | 1.4255 | – | – | – | – | –
[1], x1 = 0.7 | 1.4331 | 1.4314 | 1.4295 | 1.4278 | 1.4262 | – | – | – | – | –
[1], x1 = 0.801 | 1.4347 | 1.4331 | 1.4313 | 1.4298 | 1.4283 | – | – | – | – | –
[1], x1 = 0.9 | 1.4364 | 1.4349 | 1.4332 | 1.4318 | 1.4304 | – | – | – | – | –
[1], x1 = 0.95 | 1.4373 | 1.4359 | 1.4343 | 1.4329 | 1.4315 | – | – | – | – | –
[1], x1 = 1 | 1.4384 | 1.4371 | 1.4356 | 1.4341 | 1.4328 | – | – | – | – | –
[2], x1 = 0.105 | – | – | – | – | – | 10.43 | 9.99 | 9.56 | 9.1 | 8.74
[2], x1 = 0.2 | – | – | – | – | – | 11.24 | 10.8 | 10.32 | 9.91 | 9.5
[2], x1 = 0.301 | – | – | – | – | – | 12.31 | 11.86 | 11.36 | 10.95 | 10.54
[2], x1 = 0.401 | – | – | – | – | – | 13.6 | 13.15 | 12.62 | 12.19 | 11.76
[2], x1 = 0.45 | – | – | – | – | – | 14.39 | 13.92 | 13.39 | 12.94 | 12.49
[2], x1 = 0.501 | – | – | – | – | – | 15.23 | 14.73 | 14.21 | 13.75 | 13.27
[2], x1 = 0.55 | – | – | – | – | – | 16.1 | 15.6 | 15.04 | 14.53 | 14.06
[2], x1 = 0.6 | – | – | – | – | – | 17.05 | 16.52 | 15.93 | 15.42 | 14.92
[2], x1 = 0.66 | – | – | – | – | – | 18.34 | 17.77 | 17.13 | 16.57 | 16.07
[2], x1 = 0.7 | – | – | – | – | – | 19.31 | 18.77 | 18.02 | 17.46 | 16.91
[2], x1 = 0.801 | – | – | – | – | – | 21.99 | 21.34 | 20.58 | 20.02 | 19.37
[2], x1 = 0.9 | – | – | – | – | – | 25.05 | 24.33 | 23.43 | 22.79 | 22.1
[2], x1 = 0.95 | – | – | – | – | – | 26.73 | 25.9 | 25.07 | 24.31 | 23.62
[2], x1 = 1 | – | – | – | – | – | 28.52 | 27.66 | 26.77 | 25.98 | 25.22
